According to ChEMBL document CHEMBL1150702, “3,3',5'-Tri-O-methylpiceatannol and 4,3',5'-tri-O-methylpiceatannol: improvements over piceatannol in bioactivity” (J Nat Prod, 1987):
Converted amounts (≈) assume the structure as drawn. The source made the active and inactive calls. The calls are words filed in the database; no cut-off is given here.

Legend:
Artemia salina = assay: Toxicity in Artemia salina; assay type: organism-based; conditions: in vivo
[1] = In vivo cytotoxicity against mouse 3PS cells at 50 mg/kg relative to control; assay type: functional
[2] = Cytotoxicity against mouse 9PS cells; assay type: functional; conditions: read-out: ED50 (the source's name)
[3] = Cytotoxicity against human 9KB cells; assay type: functional; conditions: read-out: ED50 (the source's name)
[4] = system: Agrobacterium tumefaciens; assay: Antitumor activity against Agrobacterium tumefaciens-induced crown gall tumor in potato tubers by potato disk test; assay type: functional
Mus musculus = assay: In vivo cytotoxicity against mouse 3PS cells up to 200 mg/kg relative to control; assay type: functional, organism-based; parameters: dose 200 mg/kg

Row | Compound | LC50 (Artemia salina) [ppm] | T/C [1] [%] | EC50 [2] [µg/mL] | EC50 [3] [µg/mL] | inhibition (INH) [4] [%] | Activity (Mus musculus)
1 | COc1cc(C=O)ccc1O [VANILLIN] | 31 |  |  |  |  | 
2 | COc1cc(/C=C/c2ccc(OC)c(O)c2)cc(OC)c1 | 2.8 | 119 | 0.1 (≈ 0.349 µM) | < 0.01 | 22 | 
3 | COc1ccc(C=O)cc1O [ISOVANILLIN] | 31 |  |  |  |  | 
4 | Oc1cc(O)cc(/C=C/c2ccc(O)c(O)c2)c1 [PICEATANNOL] | 278 |  |  |  |  | 
5 | COc1cc(/C=C/c2ccc(O)c(OC)c2)cc(OC)c1 | > 1000 |  |  | 0.25 (≈ 0.873 µM) | 19 | inactive
